Earlier results on 23 molecules are cited in Sander's compilation of Henry's law constants (doi:10.1021/es8005783).

The nature of this series: Henry solubility constant Hcp at 298.15 K (mol/(m3 Pa)). Particulars: reference: Hilal et al. (2008); cited value.
Take `FC(F)(F)C(F)(Cl)Cl` [1,1-dichlorotetrafluoroethane]: the “Henry solubility constant Hcp” value is 7.5e-06.

`CCc1ccccc1CC` [1,2-diethylbenzene]: the “Henry solubility constant Hcp” value is 0.0012.

Regarding `ClC=CCCl` [1,3-dichloropropene], the “Henry solubility constant Hcp” value is 0.0058.

With `CCc1cccc(CC)c1` [1,3-diethylbenzene], the “Henry solubility constant Hcp” value was 0.0038.

On to `C1=CCC=CC1` [1,4-cyclohexadiene], for which the “Henry solubility constant Hcp” value is 0.001.

In the case of `COCC(C)O` (stereo not drawn) [1-methoxy-2-propanol], the “Henry solubility constant Hcp” value is 11.

For the molecule `CCC(C)N` (stereo not drawn) [2-butanamine], the “Henry solubility constant Hcp” value is 0.065.

Take `CC(C)CN` [2-methyl-1-propanamine]: the “Henry solubility constant Hcp” value was 0.72.

With `C=C(C)C(=O)OCC` [2-methyl-2-propenoic acid, ethyl ester], the “Henry solubility constant Hcp” value is 0.016.

Take `CCCC(C)C` [2-methylpentane]: the “Henry solubility constant Hcp” value was 6.2e-06.

`CC(C)N` [2-propanamine]: the “Henry solubility constant Hcp” value is 0.22.

For the molecule `CCCN(CCC)CCC` [N,N-dipropyl-1-propanamine], the “Henry solubility constant Hcp” value is 0.026.

As for `ClC1=C(Cl)[C@]2(Cl)[C@H]3[C@H]([C@@H]4C=C[C@H]3C4)[C@@]1(Cl)C2(Cl)Cl` [aldrin], the “Henry solubility constant Hcp” value is 0.02.

With `Cc1c(COC(=O)[C@@H]2[C@H](/C=C(\Cl)C(F)(F)F)C2(C)C)cccc1-c1ccccc1` [bifenthrin], the “Henry solubility constant Hcp” value is 9.9.

On to `ClC(Cl)Br` [bromodichloromethane], for which the “Henry solubility constant Hcp” value is 0.0077.

`FC(F)(F)Cl` [chlorotrifluoromethane]: the “Henry solubility constant Hcp” value was 7.2e-06.

Consider `FC(F)(Cl)Cl` [dichlorodifluoromethane], for which the “Henry solubility constant Hcp” value was 3.6e-05.

Take `ClC1=C(Cl)[C@]2(Cl)[C@@H]3[C@@H]4C[C@@H]([C@H]5O[C@@H]45)[C@@H]3[C@@]1(Cl)C2(Cl)Cl` [dieldrin]: the “Henry solubility constant Hcp” value is 0.17.

On to `ClC1=C(Cl)C2(Cl)C3C4OC4C(Cl)C3C1(Cl)C2(Cl)Cl` (stereo not drawn) [heptachlorepoxide], for which the “Henry solubility constant Hcp” value was 0.54.

Turning to `ClC(Cl)=C(Cl)C(Cl)=C(Cl)Cl` [hexachlorobutadiene], the “Henry solubility constant Hcp” value was 0.00097.

Consider `O=[N+]([O-])c1ccccc1` [nitrobenzene], for which the “Henry solubility constant Hcp” value was 0.42.

Regarding `CCCCCCCCC(=O)O` [nonanoic acid], the “Henry solubility constant Hcp” value was 6.9.

As for `BrC(Br)(Br)Br` [tetrabromomethane], the “Henry solubility constant Hcp” value is 0.02.
